{"source": "DBAASP", "assay_in_all_cases": "≥ marks a high value that may be exact or a test limit, other limits are often not marked, values filed in µg/mL are converted to µM", "key": {"[1]": {"system": "Micrococcus luteus ATCC 4698"}, "[2]": {"system": "Staphylococcus aureus ATCC 6538"}, "[3]": {"system": "Staphylococcus epidermidis ATCC 12228"}, "[4]": {"system": "Escherichia coli DH5alpha"}, "[5]": {"system": "Lactococcus lactis subsp. cremoris I116"}, "[6]": {"system": "Staphylococcus aureus CIP 677"}, "[7]": {"system": "Staphylococcus aureus ATCC 33591"}, "[8]": {"system": "Pseudomonas aeruginosa ATCC 27853"}, "[9]": {"system": "Enterococcus faecium ATCC 700221"}, "[10]": {"system": "Staphylococcus aureus ATCC 25923"}, "[11]": {"system": "Candida albicans ATCC 200955"}, "Escherichia coli BL21AI": {"system": "Escherichia coli BL21AI"}, "[12]": {"system": "Micrococcus luteus ATCC 10240"}, "Escherichia coli D31": {"system": "Escherichia coli D31"}, "[13]": {"system": "Salmonella enterica subsp. enterica serovar Typhimurium ATCC 700408"}, "[14]": {"system": "Klebsiella pneumoniae K6 ATCC 700603"}, "[15]": {"system": "Listeria monocytogenes EGD"}, "Escherichia coli ML-35p": {"system": "Escherichia coli ML-35p"}, "Candida albicans 820": {"system": "Candida albicans 820"}, "Candida albicans MDM8": {"system": "Candida albicans MDM8"}, "[16]": {"system": "Staphylococcus saprophyticus"}, "[17]": {"system": "Escherichia coli CCT 1371"}, "Micrococcus luteus A270": {"system": "Micrococcus luteus A270"}, "[18]": {"system": "Alcaligenes faecalis ATCC 8750"}, "[19]": {"system": "Salmonella enterica subsp. arizonae ATCC 13314"}, "Escherichia coli SBS 363": {"system": "Escherichia coli SBS 363"}, "Bacillus thuringiensis": {"system": "Bacillus thuringiensis"}, "[20]": {"system": "Bacillus subtilis ATCC 6633"}, "Candida albicans": {"system": "Candida albicans"}, "[21]": {"system": "Klebsiella pneumoniae ATCC 13883"}, "[22]": {"system": "Bacillus subtilis CCT 2471"}, "[23]": {"system": "Escherichia coli ATCC 25922"}, "[24]": {"system": "Staphylococcus aureus CCT 6538"}, "[25]": {"system": "Pseudomonas aeruginosa KCTC 1637"}, "[26]": {"system": "Bacillus subtilis KCTC 3068"}, "[27]": {"system": "Salmonella typhimurium KCTC 1926"}, "[28]": {"system": "Staphylococcus aureus KCTC 1621"}, "[29]": {"system": "Escherichia coli KCTC 1682"}, "[30]": {"system": "Candida albicans KCTC 7965"}, "[31]": {"system": "Staphylococcus epidermidis KCTC 1917"}}, "note": "“And” between values parts separate entries of the source, which are not always exact repeats. Equal entries are not always repeated."}
{"molecule": "CC(C)C[C@H](NC(=O)[C@H](CC(C)C)NC(=O)[C@H](CCCCN)NC(=O)[C@H](CO)NC(=O)[C@H](CC(C)C)NC(=O)[C@H](C)NC(=O)[C@H](CCCCN)NC(=O)[C@H](Cc1ccccc1)NC(=O)[C@@H](NC(=O)[C@H](C)NC(=O)CNC(=O)[C@H](CC(C)C)NC(=O)[C@@H](N)Cc1ccccc1)C(C)C)C(=O)O", "note": "[FLGAVFKALSKLL]", "values": [{"measurement": "MIC", "setting": "[1]", "result": 4.27, "unit": "µM"}, {"measurement": "MIC", "setting": "[2]", "result": 7.82, "unit": "µM"}, {"measurement": "MIC", "setting": "[3]", "result": 12.8, "unit": "µM"}, {"measurement": "MIC", "setting": "[4]", "result": 21.3, "unit": "µM"}]}
{"molecule": "CC(C)C[C@H](NC(=O)[C@H](CC(C)C)NC(=O)[C@H](CCCCN)NC(=O)[C@H](CO)NC(=O)[C@H](CC(C)C)NC(=O)[C@H](C)NC(=O)[C@H](CCCCN)NC(=O)[C@H](Cc1ccccc1)NC(=O)[C@H](CC(C)C)NC(=O)[C@H](C)NC(=O)[C@H](CCCCN)NC(=O)[C@H](CC(C)C)NC(=O)[C@@H](N)Cc1ccccc1)C(=O)O", "note": "[FLKALFKALSKLL]", "values": [{"measurement": "MIC", "setting": "[1]", "result": 2.68, "unit": "µM"}, {"measurement": "MIC", "setting": "[2]", "result": 4.02, "unit": "µM"}, {"measurement": "MIC", "setting": "[3]", "result": 6.7, "unit": "µM"}, {"measurement": "MIC", "setting": "[4]", "result": 16.8, "unit": "µM"}]}
{"molecule": "CC[C@H](C)[C@H](NC(=O)CN)C(=O)N[C@@H](Cc1c[nH]c2ccccc12)C(=O)NCC(=O)N[C@H](C(=O)N[C@@H](CC(C)C)C(=O)N[C@@H](C)C(=O)N[C@@H](CCCCN)C(=O)N[C@H](C(=O)NCC(=O)N[C@H](C(=O)N[C@@H](CCCCN)C(=O)N[C@@H](C)C(=O)N[C@H](C(=O)N1CCC[C@H]1C(=O)N[C@@H](CCCN=C(N)N)C(=O)N[C@H](C(=O)N[C@H](C(=O)N[C@@H](CO)C(=O)N[C@@H](CCSC)C(=O)N[C@@H](CC(C)C)C(=O)N[C@@H](CCCCN)C(=O)N[C@@H](CCCCN)C(=O)N[C@@H](CCCCN)C(=O)N[C@@H](CCC(N)=O)C(=O)O)[C@@H](C)CC)C(C)C)C(C)C)[C@@H](C)CC)[C@@H](C)CC)[C@@H](C)O", "note": "[GIWGTLAKIGIKAVPRVISMLKKKQ]", "values": [{"measurement": "MIC", "setting": "[5]", "result": 4, "unit": "µM"}, {"measurement": "MIC", "setting": "[6]", "result": 8, "unit": "µM"}]}
{"molecule": "CC[C@H](C)[C@H](NC(=O)[C@H](CCCN=C(N)N)NC(=O)[C@H](CCCCN)NC(=O)[C@H](CC(C)C)NC(=O)[C@H](CC(C)C)NC(=O)CN)C(=O)N[C@@H](CCCCN)C(=O)N[C@@H](CCCCN)C(=O)N[C@@H](CC(C)C)C(=O)N[C@@H](CC(C)C)C(N)=O", "note": "[GLLKRIKKLL]", "values": [{"measurement": "MIC", "setting": "[7]", "result": "≥ 256", "unit": "µM"}, {"measurement": "MIC", "setting": "[8]", "result": 28.4, "unit": "µM"}, {"measurement": "MIC", "setting": "[9]", "result": "≥ 66.3", "unit": "µM"}, {"measurement": "MIC", "setting": "[10]", "result": 4.23, "unit": "µM"}, {"measurement": "MIC", "setting": "[11]", "result": "≥ 85.3", "unit": "µM"}]}
{"molecule": "CC[C@H](C)[C@H](NC(=O)[C@H](Cc1ccc(O)cc1)NC(=O)[C@@H](NC(=O)[C@@H]1CCCN1C(=O)[C@H](CCCN=C(N)N)NC(=O)[C@H](CC(N)=O)NC(=O)[C@H](CC(N)=O)NC(=O)CN)C(C)C)C(=O)N[C@@H](C)C(=O)N[C@@H](CCC(N)=O)C(=O)N1CCC[C@H]1C(=O)N[C@@H](CCCN=C(N)N)C(=O)N1CCC[C@H]1C(=O)N1CCC[C@H]1C(=O)N[C@@H](Cc1cnc[nH]1)C(=O)N1CCC[C@H]1C(=O)N[C@@H](CCCN=C(N)N)C(=O)N[C@@H](CC(C)C)C(N)=O", "note": "[GNNRPVYIAQPRPPHPRL]", "values": [{"measurement": "MIC", "setting": "Escherichia coli BL21AI", "result": "≥ 60", "unit": "µM"}, {"measurement": "MIC", "setting": "[12]", "result": "≥ 60", "unit": "µM"}]}
{"molecule": "CC[C@H](C)[C@H](NC(=O)[C@H](Cc1ccc(O)cc1)NC(=O)[C@@H](NC(=O)[C@@H]1CCCN1C(=O)[C@H](CCCN=C(N)N)NC(=O)[C@H](CC(N)=O)NC(=O)[C@H](CC(N)=O)NC(=O)CN)C(C)C)C(=O)N1CCC[C@H]1C(=O)N[C@@H](CCC(N)=O)C(=O)N1CCC[C@H]1C(=O)N[C@@H](CCCN=C(N)N)C(=O)N1CCC[C@H]1C(=O)N1CCC[C@H]1C(=O)N[C@@H](Cc1cnc[nH]1)C(=O)N1CCC[C@H]1C(=O)N[C@@H](CCCN=C(N)N)C(=O)N[C@@H](Cc1ccccc1)C(N)=O", "note": "[GNNRPVYIPQPRPPHPRF]", "values": [{"measurement": "MIC", "setting": "Escherichia coli D31", "result": "≥ 59.7", "unit": "µM"}, {"measurement": "MIC", "setting": "[13]", "result": 1.87, "unit": "µM"}, {"measurement": "MIC", "setting": "[14]", "result": 29.9, "unit": "µM"}]}
{"molecule": "CC[C@H](C)[C@@H]1NC(=O)[C@H](CCCN=C(N)N)NC(=O)[C@@H]2CSSC[C@@H]3NC(=O)[C@H](C(C)C)NC(=O)CNC(=O)[C@H](Cc4ccccc4)NC(=O)[C@H](Cc4ccc(O)cc4)NC(=O)[C@H](C(C)C)NC(=O)[C@H](CCC(=O)O)NC(=O)[C@H](CC(C)C)NC(=O)CNC(=O)[C@H](CC(C)C)NC(=O)[C@H](CSSC[C@H](NC(=O)[C@H](CCCN=C(N)N)NC(=O)[C@H](CCCN=C(N)N)NC(=O)[C@H](C)NC(=O)[C@H](CC(C)C)NC(=O)[C@H](CCCN=C(N)N)NC(=O)CNC(=O)[C@H](Cc4cnc[nH]4)NC(=O)[C@H](CC(C)C)NC(=O)[C@H](Cc4ccccc4)NC3=O)C(=O)N[C@H](C(=O)N[C@@H](CCCN=C(N)N)C(=O)O)CSSC[C@H](NC(=O)[C@@H](NC(=O)[C@H](CCCN=C(N)N)NC(=O)[C@@H](N)CCCN=C(N)N)[C@@H](C)CC)C(=O)N[C@@H](CCCN=C(N)N)C(=O)N2)NC(=O)[C@H](CCCN=C(N)N)NC(=O)CNC1=O", "note": "[RRICRCRIGRCLGLEVYFGVCFLHGRLARRCCR]", "values": [{"measurement": "MIC", "setting": "[15]", "result": "1.3 µM and 1.8 µM"}, {"measurement": "MIC", "setting": "Escherichia coli ML-35p", "result": "1.6 µM and 3.5 µM"}, {"measurement": "MIC", "setting": "Candida albicans 820", "result": "2.3 µM and 4.5 µM"}]}
{"molecule": "CC[C@H](C)[C@H](NC(=O)[C@H](CC(C)C)NC(=O)[C@H](CO)NC(=O)[C@H](CC(C)C)NC(=O)[C@H](CC(C)C)NC(=O)[C@@H](N)CO)C(=O)N[C@@H](CCCN=C(N)N)C(=O)N[C@@H](CCCCN)C(=O)N[C@@H](CC(C)C)C(=O)N[C@H](C(=O)N[C@H](C(N)=O)[C@@H](C)O)[C@@H](C)CC", "note": "[SLLSLIRKLIT]", "values": [{"measurement": "MIC", "setting": "Candida albicans MDM8", "result": 0.8, "unit": "µM"}, {"measurement": "MIC", "setting": "[16]", "result": 20, "unit": "µM"}, {"measurement": "MIC", "setting": "[17]", "result": 20, "unit": "µM"}, {"measurement": "MIC", "setting": "[8]", "result": 1.6, "unit": "µM"}, {"measurement": "MIC", "setting": "Micrococcus luteus A270", "result": 0.8, "unit": "µM"}, {"measurement": "MIC", "setting": "[18]", "result": "≥ 40", "unit": "µM"}, {"measurement": "MIC", "setting": "[19]", "result": 25, "unit": "µM"}, {"measurement": "MIC", "setting": "Escherichia coli SBS 363", "result": 1.6, "unit": "µM"}, {"measurement": "MIC", "setting": "Bacillus thuringiensis", "result": 20, "unit": "µM"}, {"measurement": "MIC", "setting": "[20]", "result": 6.2, "unit": "µM"}, {"measurement": "MIC", "setting": "Candida albicans", "result": 20, "unit": "µM"}, {"measurement": "MIC", "setting": "[21]", "result": "≥ 40", "unit": "µM"}, {"measurement": "MIC", "setting": "[22]", "result": 8, "unit": "µM"}, {"measurement": "MIC", "setting": "[23]", "result": 40, "unit": "µM"}, {"measurement": "MIC", "setting": "[24]", "result": 4, "unit": "µM"}]}
{"molecule": "CC(C)C[C@H](NC(=O)[C@H](Cc1ccccc1)NC(=O)CNC(=O)[C@H](Cc1c[nH]c2ccccc12)NC(=O)[C@H](Cc1c[nH]c2ccccc12)NC(=O)[C@H](Cc1c[nH]c2ccccc12)NC(=O)CNC(=O)[C@H](Cc1ccccc1)NC(=O)[C@H](CCCN=C(N)N)NC(=O)[C@H](CCCN=C(N)N)NC(=O)[C@@H](N)C(C)C)C(=O)N[C@@H](CCCN=C(N)N)C(=O)N[C@@H](CCCN=C(N)N)C(=O)O", "note": "[VRRFGWWWGFLRR]", "values": [{"measurement": "MIC", "setting": "[25]", "result": "≥ 35.1", "unit": "µM"}, {"measurement": "MIC", "setting": "[26]", "result": 8.78, "unit": "µM"}, {"measurement": "MIC", "setting": "[27]", "result": 17.6, "unit": "µM"}, {"measurement": "MIC", "setting": "[28]", "result": 8.78, "unit": "µM"}, {"measurement": "MIC", "setting": "[29]", "result": 17.6, "unit": "µM"}, {"measurement": "MIC", "setting": "[30]", "result": 17.6, "unit": "µM"}, {"measurement": "MIC", "setting": "[31]", "result": 4.39, "unit": "µM"}]}
